# According to US20150010474A1, “Compounds And Methods For Selective Imaging And/Or Ablation” (Auckland Uniservices Limited, priority 2011, published 2015):
# Experiments:
# [1] = test system: nfsA expressing HCT116 cells; settings: 0.7 mM-hr cold EF5; cited from earlier work
# [2] = test system: HCT116 wild type (WT) cancer cells; test: Inhibition of cell proliferation, low cell density IC50 assay; format: cell-based; settings: Homo sapiens, HCT-116; 4 hour drug exposure, washing and regrowth for 5 days
# Procedure: (§1) IC50 values were determined as the concentration of prodrug required to inhibit cell growth by 50% of untreated controls following 4 hour drug exposure, with washing and regrowth for 5 days. WT:NfsA ratios were determined as the WT IC50/NfsA IC50.
# [3] = test system: HCT116 cells overexpressing the nitroreductase NfsA from E. coli; test: as above; format: cell-based, human; settings: for IC50: Homo sapiens, HCT-116, 4 hour drug exposure, washing and regrowth for 5 days; for WT:NfsA: WT IC50/NfsA IC50
# Procedure: as §1
# [4] = cited from earlier work
# [5] = test system: HCT-116 cells stably over-expressing cytochrome P450 reductase (CYPOR); test: Flow cytometry of metabolism and binding (EF5 antibody); format: cell-based, human; settings: 2 h
# Procedure: FIG. 4 illustrates the results of a second independent flow cytometry analysis of compound 15 and 93 metabolism and binding in wild-type HCT-116 cells, HCT-116 cells stably over-expressing cytochrome P450 reductase (CYPOR), a human one-electron reductase known to metabolise nitroheterocyclic and nitroaromatic compounds, or HCT-116 cells stably expressing the bacterial nitroreductase E. coli NfsA. 1×10^6HCT-116 cells were seeded in 6 well plates underaerobic conditions (21% O2, 5% CO2). After 2 h incubation, drug free control (wild-type HCT-116, foreground), 20 μM (wild-type HCT-116, second plot), 100 μM (wild-type HCT-116, third plot), 20 μM (HCT-116-CYPOR, forth plot), 100 μM (HCT-116-CYPOR, fifth plot) or 20 μM (HCT-116-NfsA, sixth plot) of compound 15 or 93 was added. After 2 h incubation cells were harvested and fixed with paraformaldehyde before being incubated overnight with 100 μl of 75 μg/ml EF5 CY5 conjugated antibody. Samples were then analysed on a Becton Dickinson FACscan flow cytometer.
# FIG. 5 illustrates the results of flow cytometry analysis of HCT-116 cells stably over-expressing cytochrome P450 reductase (CYPOR), a human one-electron reductase known to metabolise nitroheterocyclic and nitroaromatic compounds. 1×10^6HCT-116-CYPOR cells were seeded in 6 well plates in aerobic, anoxic and 0.2% oxygen conditions designed to replicate the lower limit of pathological hypoxia observed in human tumours. After 2 h incubation, drug free control (foreground), 20 μM (middle) or 100 μM (background) of compound 15 or 67 was added. After 2 h incubation cells were harvested and fixed with paraformaldehyde before being incubated overnight with 100 μl of 75 μg/ml EF5 CY5 conjugated antibody. Samples were then analysed on a Becton Dickinson FAC scan flow cytometer.
# FIG. 6 illustrates the results of flow cytometry analysis of compound 15 and 93 metabolism and binding in wild-type HCT-116 cells and HCT-116 cells stably over-expressing cytochrome P450 reductase (CYPOR), a human one-electron reductase known to metabolise nitroheterocyclic and nitroaromatic compounds. 1×10^6 HCT-116 cells were seeded in 6 well plates underanoxic conditions. After 2 h incubation, drug free control (wild-type HCT-116, foreground), 20 μM (wild-type HCT-116, second plot), 100 μM (wild-type HCT-116, third plot), 20 μM (HCT-116-CYPOR, forth plot) or 100 μM (HCT-116-CYPOR, fifth plot) of compound 15 or 93 was added. After 2 h incubation cells were harvested and fixed with paraformaldehyde before being incubated overnight with 100 μl of 75 μg/ml EF5 CY5 conjugated antibody. Samples were then analysed on a Becton Dickinson FACscan flow cytometer.
# YcnD (B.s) = target: T1, YcnD (B.s) (Bacillus subtilis, UniProt P94424); test: Initial rate of metabolism by purified recombinant bacterial nitroreductase (NADPH consumption, UV/Vis); format: biochemical; settings: compound 500 μM, NADPH 200 μM, 10 mM Tris-Cl pH 7.0; μmol NADPH consumed per mg enzyme per minute
# T1 construct: made in house
# T1 sequence (P94424 whole entry): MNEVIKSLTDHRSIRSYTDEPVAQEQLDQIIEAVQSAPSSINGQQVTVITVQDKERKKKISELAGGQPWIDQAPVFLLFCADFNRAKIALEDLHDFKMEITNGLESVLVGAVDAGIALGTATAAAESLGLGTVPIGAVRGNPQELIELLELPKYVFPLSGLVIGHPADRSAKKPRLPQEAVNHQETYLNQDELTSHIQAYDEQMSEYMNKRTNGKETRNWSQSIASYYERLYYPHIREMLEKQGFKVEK
# Procedure: (§2) The relative initial rates of reductive metabolism of the nitro moiety of test compounds by bacterial nitroreductase's can be measured experimentally by incubating the test compound at near-saturating concentration (determined empirically) with the purified recombinant bacterial nitroreductase enzymes in the presence of NADPH co-factor. UV/Vis spectroscopy is used to measure consumption of the co-factor, indicating metabolism of the test compound by the nitroreductase.
# (§3) Compounds 67, 93 and 97 (500 μM) were added to NADPH (200 μM) in 10 mM Tris-Cl pH 7.0. Reactions were initiated by enzyme addition (between 5 and 20 μg per reaction). Rates represent μmol of NADPH consumed per mg enzyme added per minute.
# NfsB (E.c) = target: T2, NfsB (E.c) (Escherichia coli, UniProt P38489); test: as above; format: biochemical; settings: compound 500 μM, NADPH 200 μM, 10 mM Tris-Cl pH 7.0; μmol NADPH consumed per mg enzyme per minute
# T2 construct: made in house
# T2 sequence (P38489 whole entry): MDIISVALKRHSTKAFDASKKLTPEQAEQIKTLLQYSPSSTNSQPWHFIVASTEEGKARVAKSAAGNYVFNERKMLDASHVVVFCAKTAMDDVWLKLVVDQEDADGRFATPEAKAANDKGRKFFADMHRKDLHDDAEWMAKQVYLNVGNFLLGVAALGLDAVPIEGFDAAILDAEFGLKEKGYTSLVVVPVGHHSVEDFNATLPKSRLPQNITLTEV
# Procedure: as §2, §3
# NfrA (B.s) = target: T3, NfrA (B.s) (Bacillus subtilis, UniProt P39605); test: as above; format: biochemical; settings: compound 500 μM, NADPH 200 μM, 10 mM Tris-Cl pH 7.0; μmol NADPH consumed per mg enzyme per minute
# T3 construct: made in house
# T3 sequence (P39605 whole entry): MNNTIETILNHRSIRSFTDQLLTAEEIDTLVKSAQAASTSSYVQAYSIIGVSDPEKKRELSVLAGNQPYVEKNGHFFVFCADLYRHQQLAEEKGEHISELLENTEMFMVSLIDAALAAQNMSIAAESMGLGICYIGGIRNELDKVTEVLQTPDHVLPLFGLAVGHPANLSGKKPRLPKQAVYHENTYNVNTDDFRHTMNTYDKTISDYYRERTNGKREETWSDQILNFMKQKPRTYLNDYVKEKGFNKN
# Procedure: as §2, §3
# NfsA (E.c) = target: T4, NfsA (E.c) (Escherichia coli, UniProt P17117); test: as above; format: biochemical; settings: compound 500 μM, NADPH 200 μM, 10 mM Tris-Cl pH 7.0; μmol NADPH consumed per mg enzyme per minute
# T4 construct: made in house
# T4 sequence (P17117 whole entry): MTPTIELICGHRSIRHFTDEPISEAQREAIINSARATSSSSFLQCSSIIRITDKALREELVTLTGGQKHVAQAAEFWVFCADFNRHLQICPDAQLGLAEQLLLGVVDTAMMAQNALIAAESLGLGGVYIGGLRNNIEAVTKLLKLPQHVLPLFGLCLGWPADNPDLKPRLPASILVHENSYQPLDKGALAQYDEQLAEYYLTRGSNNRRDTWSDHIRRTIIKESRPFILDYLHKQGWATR
# Procedure: as §2, §3
# [6] = test system: NTR over-expressing E. coli SOS-R2; test: Growth Inhibition assay in 58-membered NTR over-expression library; format: cell-based, Escherichia coli; settings: 4 h incubation
# [7] = test system: bacterial nitroreductase over-expressing E. coli strains; test: IC50 (turbidity) in selected NTR over-expressing library strains; format: cell-based, Escherichia coli; settings: 4 h post-challenge, serial dilution
# Procedure: FIG. 2.3 illustrates the IC50 of compound 67 for selected NTR library strains (i.e. the concentration of compound 67 that yielded only 50% turbidity relative to an unchallenged control 4 h post-challenge, in replicate cultures across a serial dilution of compound 67). The strains selected were all those observed to have SOS activity above the empty plasmid control (“Empty”) in response to challenge with compound 67 as illustrated in FIG. 2(B), plus NfsB (E.c) as a negative control. For the IC50 assays, 100 μl of overnight cultures were used to inoculate 2 ml M63 minimal medium supplemented with 100 μg·ml^−1 ampicillin and 50 μM IPTG and incubated at 30° C., 200 rpm for 3.5 h. 40 μL aliquots from each culture were then added to individual wells of a sterile 384 well plate, each already containing 40 μl of ampicillin and IPTG-supplemented M63 medium and a dilution series of compound 67 as indicated on the X-axis of panel A. A. Raw growth curves. Each NTR over-expression strain was tested at least in duplicate (independent replicates), with the exception of NfsB (E.c), which was only measured once. Culture turbidity was monitored by optical density at 600 nm 4 h post-challenge. B. IC50 values calculated by comparison of the challenged cells with the unchallenged control for each strain, after subtracting the initial absorbance values (t=0 h), using SigmaPlot 10.0 (Systat Software Inc., Richmond, Calif.). Errors are 1 standard error of the mean (SEM).
# (§4) FIG. 2.4 illustrates the IC50 of compound 93 for selected NTR library strains. […] B. IC50 values calculated by comparison of the challenged cells with the unchallenged control for each strain, after subtracting the initial absorbance values (t=0 h), using SigmaPlot 10.0 (Systat Software Inc., Richmond, Calif.). […]
# as §4, with “2.5” for “2.4”, “97” for “93”
# [8] = test system: human solid tumour xenograft NCI-H1299 (WT); test: Hypoxia-dependent binding by ex vivo flow cytometry with pimonidazole co-staining; format: in vivo, NIH-III nude mice; settings: 60 mg/kg i.p.; tumours excised after 120 minutes, single cell suspension
# Procedure: FIG. 11 illustrates the absence of hypoxic-dependent binding of compound 67 and compound 93 by flow cytometry in the human solid tumour xenograft NCI-H1299, with reference to hypoxia staining by compound 15 and pimonidazole (Hypoxyprobe™) as internal standards (positive controls). NCI-H1299 WT tumours were inoculated subcutaneously onto the flank of NIH-III nude mice. When the mixed tumours reached approximately 800 mm^3, mice were dosed i.p. with 60 mg/kg of pimonidazole, and 60 minutes later dosed with either 60 mg/kg of compound 15, or 60 mg/kg of compound 67, or 60 mg/kg of compound 93. After 120 minutes the tumours were excised and enzyme digested to form a single cell suspension before fixation in ice cold 80% ethanol. Single cell immunodetection of bound adducts of compounds was performed using a monoclonal antibody (Mab1, hybridoma clone 4.3.11.3) conjugated to Alexa-488 (Ex/Em 499/519; green) for the detection of pimonidazole adducts, and monoclonal antibody ELK3-51 directly conjugated to the fluorophore CY5 (Ex/Em 650/670 nm; red) for detection of adducts formed by compound 15 or compound 67 or compound 93. The ex-vivo tumour cell samples were analysed on a Becton Dickinson FACscan flow cytometer using FACS Diva software. Integrated fluorescence measurements were recorded for 10,000 single non-debris events. Fluorescence emission was monitored at 530 nm±20 and 670-700 nm for detection of Alexa-488 and CY5 conjugated monoclonal antibodies, respectively.
smiles,measurement,setting,value
"O=C(Cn1ccnc1[N+](=O)[O-])NCC(F)(F)C(F)(F)F [Compound 15, 2-(2-nitro-1H-imidazol-1-yl)-N-(2,2,3,3,3-pentafluoropropyl)acetamide]",Loss of viability for nfsA expressing HCT116 cells,[1],90%
same,IC50,[2],2.27 mM
same,IC50,[3],1 µM
same,WT:NfsA,[3],2270
same,Concentration-time achieved in human plasma,[4]; cold EF5 9 mg/kg,0.89 mM-hr
same,Plasma AUC,[4]; dose of 21 mg/kg injected,2 mM-hr
same,Tolerability of injected dose,[4]; dose of 21 mg/kg,safely injected without any toxicities
same,"Metabolism and binding by FACS, HCT-116-CYPOR cells (FIG. 4)","[5]; 20 μM and 100 μM, aerobic conditions",minimal metabolism and binding
same,"Metabolism and binding by FACS, HCT-116-CYPOR cells, anoxia (FIG. 6)","[5]; 20 μM and 100 μM, anoxic conditions",significant dose-dependent and reductase dependent increases in metabolism and binding
same,"Metabolism and binding by FACS, HCT-116-CYPOR cells, 0.2% oxygen (FIG. 5)","[5]; 20 μM or 100 μM, 0.2% oxygen",Significant dose-dependent increases in metabolism
same,"Metabolism and binding by FACS, HCT-116-CYPOR cells, aerobic (FIG. 5)","[5]; 20 μM or 100 μM, aerobic",negligible metabolism and binding
same,"Metabolism and binding by FACS, HCT-116-CYPOR cells, anoxia (FIG. 5)","[5]; 20 μM or 100 μM, anoxia",Significant dose-dependent increases in metabolism
"O=[N+]([O-])c1nccn1Cc1cn(C(CO)CF)nn1 (stereo not drawn) [Compound 19, reference compound]",IC50,[2],> 12.5 mM
same,IC50,[3],16 µM
same,WT:NfsA,[3],>781
"O=[N+]([O-])c1cn(Cc2cn(C(CO)CF)nn2)cn1 (stereo not drawn) [Compound 97, 3-fluoro-2-(4-((4-nitro-1H-imidazol-1-yl)methyl)-1H-1,2,3-triazol-1-yl)propan-1-ol]",IC50,[2],> 12.5 mM
same,Rate of metabolism by YcnD (B.s),YcnD (B.s),6.2 µmol/min/mg
same,Rate of metabolism by NfsB (E.c),NfsB (E.c),1.4 µmol/min/mg
same,Rate of metabolism by NfrA (B.s),NfrA (B.s),3.9 µmol/min/mg
same,Rate of metabolism by NfsA (E.c),NfsA (E.c),4.3 µmol/min/mg
same,Reductive metabolism at the nitro moiety by NTR library members (NfsA and NfsB families),"[6]; 400 μM compound 67, 130 μM compound 93, 800 μM compound 97",reductively metabolised at the nitro moiety by the majority of the NfsA and NfsB families tested
same,Metabolism by members of the NemA nitroreductase family,[6]; 800 μM compound 97,Modest metabolism
same,Inhibition of bacterial cell growth in NTR over-expressing strains compared to controls,[7],Inhibition of bacterial cell growth was selectively observed
same,IC50,[3],178 µM
same,WT:NfsA,[3],>70
same,melting point,,126 to 129 °C
"O=[N+]([O-])c1nccn1CC(O)CN1CCCCC1 (stereo not drawn) [pimonidazole, reference compound]","Hypoxia-dependent binding in NCI-H1299 WT tumours, flow cytometry (FIG. 11)",[8],hypoxic cells that are detected by pimonidazole adduct retention
